# From patent publication US12600757B2, “Peptides inhibiting gamma-c-cytokine activity and methods of use” (Bioniz, LLC, priority 2017, dated 2026)
# Bridge positions count the residues as written; N and C are the ends. Square brackets hold non-standard residues; d marks the D form. Ends that are not written are not given here. Peptide text beside a SMILES is read from it. R5 = C=CCCC[C@@](C)(N)C(=O)O; S5 = C=CCCC[C@](C)(N)C(=O)O
# Columns and labels:
# [1] = test system: IL-21 induction of IFNγ gene transcription; assay: IL-21 induced IFNγ gene transcription in NK92 cells (qPCR); type: cell-based; settings: peptide 10 minutes pre-treatment, human IL-21 1 ng/mL for 2 hours
# Text: (§1) The cytokine interferon gamma (IFNγ) represents a useful marker for inflammation in multiple human immune-inflammatory disease states. Transcription of the IFNγ gene is inducible by IL-15, IL-21, the non-γc cytokine IL-12, and other select cytokines. The ability to block cytokine-induced IFNγ transcription therefore represents another useful approach to determine the biological activity of custom peptide derivatives.
# (§2) NK92 cells were brought to a quiescent state by PBS washing and culturing in the absence of cytokine for 48 hours. Cells were treated with SEQ ID NO: […] for 10 minutes, and then stimulated with human IL-15, IL-21, or IL-12 at 1 ng/mL for 2 hours. A cytokine only treatment group, and another treatment group where the NK92 cells were left untreated by peptide, and not stimulated by cytokine were also included as control conditions. Following incubation with peptide and cytokine, cells were harvested, RNA was isolated for cDNA generation and used as template for qPCR analysis to quantify IFNγ transcripts.
# [2] = test system: IL-12 induction of IFNγ gene transcription; assay: IL-12 induced IFNγ gene transcription in NK92 cells (qPCR); type: cell-based; settings: peptide 10 minutes pre-treatment, human IL-12 1 ng/mL for 2 hours
# Text: as §1, §2
# [3] = test system: IL-15 induction of IFNγ gene transcription; assay: IL-15 induced IFNγ gene transcription in NK92 cells (qPCR); type: cell-based; settings: peptide 10 minutes pre-treatment, human IL-15 1 ng/mL for 2 hours
# Text: as §1, §2
# [4] = test system: T-cells in HAM/TSP culture; assay: Ex vivo spontaneous T-cell proliferation assay using HAM/TSP patient PBMC; type: cell-based, human; settings: HAM/TSP peripheral blood ex vivo culture
# Experimental: Proliferation assays were performed on HAM/TSP patient blood samples with and without the addition of BNZ-γ. These assays evaluated the ability of BNZ-γ to block the function of cytokines, such as IL-2 and IL-15, present in the ex vivo HAM/TSP patient blood culture and prevent spontaneous T-cell proliferation in these samples.
# In an ex vivo spontaneous T-cell proliferation assay, PBMC from HAM/TSP patient was cultured at 1×10(6) cells per well of a 96 well plate in RPMI-10% FCS. Increasing concentrations of BNZ-γ peptide were added to each well. As a control, an irrelevant peptide was used in similar fashion. The cells were incubated in a 37° C. CO2 incubator for 3, 4, and 6 days. The amount of 1 uCi of ^3H-thymidine was added to the cells. After an additional 6 hour incubation, cells were harvested their proliferation rate was measured. As indicated in FIG. 5A-FIG. 5D, BNZ-γ peptide inhibits the spontaneous proliferation of T-cells in HAM/TSP culture at a concentration of about 1 ug/ml.
# Other immunological markers were additionally measured in this assay. The percentage of the viral specific CD8 cells was measured during the ex vivo culture using viral protein tetramers. The population of CD4+CD25+ cells, a marker of T-cell activation, as well as Ki67 staining, a marker of T-cell proliferation, was monitored in a flow cytometry assay.
# [5] = Time-course protease stability in simulated intestinal fluid (RP-HPLC); settings: simulated intestinal fluid (USP), 37° C., over 60 minutes
# Text: To evaluate the gastric stability of the custom peptide derivatives containing one or more intra-peptide hydrocarbon linker elements of the present embodiments a time-course protease stability measurement of unmodified SEQ ID NO: 3 in comparison with a representative custom peptide derivative of SEQ ID NO: 3 containing one hydrocarbon linker element (SEQ ID NO: 39), and another representative custom peptide derivative of SEQ ID NO: 3 containing two hydrocarbon linker elements and certain amino acid positions in the (D) stereochemical configuration (SEQ ID NO: 57) was carried out in simulated intestinal fluid over 60 minutes. […] Simulated intestinal fluid was made according to USP specifications (Test Solutions, United States Pharmacopeia 36). 50 μL of 10 mg/mL peptide was mixed with 450 μL pre-warmed (37° C.) simulated intestinal fluid, and aliquots of the reaction mixture were removed at prescribed time intervals over a time-period of 60 minutes and stopped with 0.1 M HCl. Peptide stability was measured by reversed phase HPLC on a Phenomenex Aeris Peptide column (4.6×250 mm) with settings: 3.6 μm particle size, non-porous; 5.0 μL injection, 0.5 mL/min; mobile phase A: 25% Acetonitrile with 0.1% TFA; mobile phase B: 100% Acetonitrile with 0.1% TFA. The multi-step buffer gradient goes from 100% A to 100% B over 26 minutes. […]
# [6] = test system: IL-2; assay: NK92 cell proliferation assay (WST-1), IL-2 stimulated; type: cell-based, human; settings: NK92 cells, 2 days
# Text: (§3) For each of the six γc-cytokines, indicator cell lines: NK92, a human NK cell line NK92 available by American Type Culture Collection (ATCC) (catalog #CRL-2407), CTLL-2, a murine CD8 T cells line available from ATCC, and PT-18, a murine mast cell line and its subclone PT-18β, is transfected with human IL-2Rβ gene to make the cells responsive to IL-2 and IL-15 (Tagaya et al., 1996, EMBO J. 15:4928-39), and is used to quantitatively determine the γc-cytokine's growth-promoting activity (See Current protocols in Immunology from Wiley and Sons for a methodological reference).
# (§4) Once the appropriate doses of the cytokine that yield the 50-70% and 95% maximum response from the indicator cell line is determined, various concentrations (ranging from 1 μM to 10 μM) of the purified or synthesized custom derivative peptide is added to each well containing the cytokine and indicator cells. The reduction in light absorbance at 450 nm is used as an indicator of inhibition of cytokine-stimulated cellular proliferation.
# (§5) The human NK cell line NK92 was used for a dose response of SEQ ID NO: 3 against IL-2, IL-15, and IL-21. Cells were cultured with 0.5 nM of recombinant IL-2 in RPMI 10% fetal Calf Serum. […] The growth-responses of the cells were determined 2 days after the introduction of SEQ ID NO: 3 and the cytokine using the WST-1 assay. […]
# [7] = test system: IL-2 mediated phosphorylation of STAT-5; assay: IL-2 mediated phosphorylation of STAT5 in CTLL-2 cells (immunoblot); type: cell-based, murine; settings: anti-phospho-STAT5 immunoblot
# Text: (§6) Similar to the IL-15 induced tyrosine phosphorylation of STAT5 via Jak3, it is well known in the art that Jak-STAT signaling mediated via IL-21 receptor binding preferentially induces Jak-mediated tyrosine phosphorylation of STAT3 (Habib et al. 2003 J Allergy Clin Immunol. 112:1033-45). In accordance with these published data, the ability of SEQ ID NO: 3 to inhibit the tyrosine phosphorylation of the STAT5 molecule by IL-2 or IL-15 in CTLL-2 cells, and the ability of SEQ ID NO: 3 to inhibit the tyrosine phosphorylation of the STAT3 molecule by IL-21 in NK92 cells was examined (results shown in FIG. 4B).
# (§7) CTLL-2 cells were stimulated by IL-2 or IL-15 in the presence or absence of SEQ ID NO: 3. CTLL-2 cells were also stimulated by IL-2 or IL-15 in the presence of anti-IL-2 antibody (R & D Systems, Catalog #MAB202, Minneapolis, MN) or anti-IL-15 antibody (R & D Systems, Catalog #MAB247, Minneapolis, MN) as positive controls. NK92 cells were stimulated by IL-21 in the presence or absence of SEQ ID NO: 3. NK92 cells were also stimulated by IL-21 in the presence of anti-IL-21 antibody (Mabtech, Catalog #3540-1-250, Cincinnati, OH) as a positive control. Cytoplasmic proteins were extracted from the cells according to a conventional method as described in Tagaya et al. 1996 EMBO J. 15:4928-39. […]
# [8] = test system: IL-21; assay: NK92 cell proliferation assay (WST-1), IL-21 stimulated; type: cell-based, human; settings: NK92 cells, 2 days
# Text: as §3, §4, §5
# [9] = test system: IL-15 mediated phosphorylation of STAT-5; assay: IL-15 mediated phosphorylation of STAT5 in CTLL-2 cells (immunoblot); type: cell-based, murine; settings: anti-phospho-STAT5 immunoblot
# Text: as §6, §7
# [10] = test system: IL-21 mediated phosphorylation of STAT-3; assay: IL-21 mediated phosphorylation of STAT3 in NK92 cells (immunoblot); type: cell-based, human; settings: anti-phospho-STAT3 immunoblot
# Text: as §6, §7
# [11] = test system: IL-15; assay: NK92 cell proliferation assay (WST-1), IL-15 stimulated; type: cell-based, human; settings: NK92 cells, 2 days
# Text: as §3, §4, §5
# [12] = test system: IL-4; assay: NK92 cell proliferation assay (WST-1), IL-4 stimulated; type: cell-based, human; settings: NK92 cells, peptide 2.5 μM (70% purity), 2 days
# Text: as §3, §4
# (§8) The human NK cell line NK92 was used to determine the γc-cytokine inhibitory specificity of SEQ ID NO: 3. In this assay the cells were cultured with 0.5 nM of recombinant IL-2 in RPMI 10% fetal Calf Serum. […] The growth-responses of the cells were determined 2 days after the introduction of SEQ ID NO: 3 and the cytokine using the WST-1 assay. […]
# [13] = test system: IL-9; assay: NK92 cell proliferation assay (WST-1), IL-9 stimulated; type: cell-based, human; settings: NK92 cells, peptide 2.5 μM (70% purity), 2 days
# Text: as §3, §4, §8
# [14] = peptide 0-0.1 μM (>99% purity), cytokine at 70% proliferation level
compound,measurement,setting,value
{S5Ala1}-P-K-E-{S5Ala1}-L-E-R-F-V-H-L-V-Q-K-{S5Ala2}-I-H-Q-{S5Ala2}-L-S [SEQ ID NO: 83],IL-21 induction of IFNγ gene transcription,[1],inhibition
same,non-γc cytokine IL-12 induction of IFNγ gene transcription,[2],did not block
same,IL-15 induction of IFNγ gene transcription,[3],inhibition
"IKEFLQRFIHIVQSIINTS [BNZ-γ, I-K-E-F-L-Q-R-F-I-H-I-V-Q-S-I-I-N-T-S]",percent of live cells by Guava staining,[4],not impacted
"CC[C@H](C)[C@H](NC(=O)[C@]1(C)CCCC=CCCC[C@](C)(NC(=O)[C@@H](Cc2c[nH]cn2)NC(=O)[C@@]2(C)CCCC=CCCC[C@](C)(NC(=O)[C@@H](Cc3ccccc3)NC(=O)[C@@H](CCC(=O)O)NC(=O)[C@@H](CCCCN)NC(=O)[C@H]3CCCN3C(=O)[C@@H](CCCNC(=N)N)NC(=O)[C@@H](CCCNC(=N)N)NC(=O)[C@@H](CCCNC(=N)N)NC(=O)[C@H](N)CCCNC(=N)N)C(=O)N[C@@H](CCC(=O)O)C(=O)N[C@@H](CCCNC(=N)N)C(=O)N[C@@H](Cc3ccccc3)C(=O)N2)C(=O)N[C@@H](C(C)C)C(=O)N[C@@H](CCC(N)=O)C(=O)N[C@@H](CC(C)C)C(=O)N1)C(=O)N[C@H](Cc1c[nH]cn1)C(=O)N[C@H](CCC(N)=O)C(=O)N[C@H](CO)C(=O)N[C@H](CC(C)C)C(=O)N[C@H](CO)C(=O)O [SEQ ID NO: 57, {dR}-{dR}-{dR}-{dR}-{dP}-{dK}-{dE}-{dF}-{S5Ala1}-E-R-F-{R5Ala1}-{dH}-{S5Ala2}-V-Q-L-{S5Ala2}-I-{dH}-{dQ}-{dS}-{dL}-{dS}] (H-[dR][dR][dR][dR][dP][dK][dE][dF][S5]ERF[R5][dH][S5]VQL[S5]I[dH][dQ][dS][dL][dS]-OH; staple 9-13, 15-19; N-terminus and C-terminus assumed)","percentage of undigested peptide present in simulated intestinal fluid, compared to the unmodified peptide",[5],greatly enhanced
"PKEFLERFVHLVQMFIHQSLS (PKEFLERFVHLVQMFIHQSLS) [SEQ ID NO: 3, 21-mer composite peptide of γc-cytokine D-helix regions]",cellular proliferation stimulated by IL-2 (dose response),"[6]; peptide 0-10 μM (>99% purity), cytokine at 70% proliferation level",not affected
same,cellular proliferation stimulated by IL-2 (inhibitory specificity),[6]; peptide 2.5 μM (70% purity),not affected
same,IL-2 mediated phosphorylation of STAT-5,[7],but not IL-2 mediated phosphorylation of STAT-5
same,activity of IL-21 (dose response),[8]; [14],potently inhibited
same,activity of IL-21 (inhibitory specificity),[8]; peptide 2.5 μM (70% purity),significantly reduced
same,IL-15 mediated phosphorylation of STAT-5,[9],inhibited
same,IL-21 mediated phosphorylation of STAT-3,[10],inhibited
same,activity of IL-15 (dose response),[11]; [14],potently inhibited
same,activity of IL-15 (inhibitory specificity),[11]; peptide 2.5 μM (70% purity),significantly reduced
same,cellular proliferation stimulated by IL-4 (inhibitory specificity),[12],not affected
same,cellular proliferation stimulated by IL-9 (inhibitory specificity),[13],not affected
